Test results: patent US9650403B2, “Platinum (II) compound, preparation method therefor, and pharmaceutical composition and application thereof” (SHANGHAI INSTITUTE OF PHARMACEUTICAL INDUSTRY, priority 2013, dated 2017)

Columns and labels:
transplanted S180 tumor = assay: anti-tumor rate in ICR mice with transplanted S180 tumor; format: in vivo
Procedure: The model of ICR mice with transplanted 5180 sarcoma in vivo was used to determine the anticancer effect of the compound. Specific steps are as follows:
Samples: cis-3-hydroxy-acrylic acid diammine platinum (II), serial number: SIPI-601.
Positive control: Oxaliplatin for injection, Jiangsu Hengrui Medicine Co., Ltd, lot number: 13082811, 50 mg per bottle.
Samples: SIPI-601, which was dissolved by a 10% glucose injection.
Positive control: Oxaliplatin for injection, which was dissolved by a 10% glucose injection.
(§1) 32 ICR mice, male, weight 18-20 g, were supplied by Sippr/Bk Laboratory Animals Ltd, certification: SCXK (shanghai) 2008-2016.
Tumor cell trains: two ICR mice with S180 ascites tumor, passage cultured by pharmacological office, Shanghai State Institute of Pharmaceutical Industry (SIPI).
(§2) The ascites of two vigorous growing ICR mice with S180 ascites tumor was extracted under a sterile condition, diluted 6 times with saline water, axilla subcutaneously inoculated with a dosage of 0.2 ml per mouse. The mice were randomly divided into four groups the next day, 8 for each group.
(§3) The groups were blank control group, SIPI-601 60 mg/kg iv group (administered once every three days), SIPI-601 120 mg/kg iv group (administered once every six days), Oxaliplatin 9 mg/kg iv group (administered once every other day).
(§4) The mice were administered the second day after inoculation. After the treatment, the survived animals were euthanatized, the tumors were taken and weighed to calculate anti-tumor rate.

[1] = water-solubility at room temperature
[2] = test system: human oral cancer cell strain KB; assay: MTT cytotoxicity on human tumor cell strains in vitro; format: cell-based; conditions: 48 hours
Procedure: (§5) MTT method was employed to test the cytotoxic effect caused by the compound on human tumor cell stains in vitro. Specific steps are as follows:
(§6) The tumor cells (human poorly differentiated gastric cancer cell stain BGC-823, human breast cancer cell strain Bcap37, human oral cancer cell strain KB) was cultured in a 10% calf serum, inoculated into a 96-well plate (2×10^5 cells per well) at 37° C. in an incubator with 5% CO2. The cis-3-hydroxy-acrylic acid diammine platinum (II) was dissolved in DMSO to obtain a solution with a concentration of 10 mg/ml. The solution was diluted to the required concentration with a phosphate buffer, and then added into the wells of the 96-well plate respectively, each concentration was for two wells, 10 μl per well, therefore, each concentration has two parallel tests. DMSO was diluted accordingly in a gradient manner and added into the wells of the 96-well plate as controls.
(§7) After the 96-well plate was kept at 37° C. in the incubator with 5% CO2 for 48 hours, 20 μl 5 mg/ml MTT solution was added into per well. Then the 96-well plate were further kept for 3-4 hours in the incubator at the same temperature. 100 μl solvent was added into per well and the 96-well plate was kept warm in the incubator overnight to make the generated formazan crystals dissolve sufficiently. The light absorption value at 492 nm was determined.
(§8) A relative survival rate of cells was calculated according to the light absorption value after the treatment of the compound. The calculation formula is as follows: […]
(§9) The IC50 of the compound against each kind of tumor cells was calculated though software.

[3] = test system: human breast cancer cell strain Bcap37; assay: as above; format: cell-based; conditions: 48 hours
Procedure: as §5, §6, §7, §8, §9

[4] = test system: human poorly differentiated gastric cancer cell stain BGC-823; assay: as above; format: cell-based; conditions: BGC-823, MTT, 48 hours
Procedure: as §5, §6, §7, §8, §9

[5] = body weight of ICR mice with transplanted S180 tumor; format: in vivo
Procedure: as §1, §2, §3, §4

[6] = 60 mg/kg iv, once every three days
[7] = 120 mg/kg iv, once every six days
[8] = 9 mg/kg iv, once every other day

Molecule	The anti-tumor rate (transplanted S180 tumor; [6]) [%]	The anti-tumor rate (transplanted S180 tumor; [7]) [%]	water-solubility [1]	IC50 [2] [µg/mL]	IC50 [3] [µg/mL]	IC50 [4] [µg/mL]	The final body weight after the removal of tumor [5, 6] [g]	The final body weight after the removal of tumor [5, 7] [g]	The anti-tumor rate (transplanted S180 tumor; [8]) [%]	The final body weight after the removal of tumor [5, 8] [g]
cis-3-hydroxy-acrylic acid diammine platinum (II) [SIPI-601]	64.39	66.83	greater than 25 mg/mL	33.94	21.58	2.28	22.46	20.34		
O=C1[O][Pt]2([NH][C@@H]3CCCC[C@H]3[NH]2)[O]C1=O [Oxaliplatin, reference compound]									62.42	19.92
